Results as given in article PMC7319900 (Nature, 2020).

Assays:
[1] = molecular target: T1, BaiCD from C. hiranonis (Peptacetobacter hiranonis, UniProt Q9RB48); experiment: LC-MS of acid-precipitated purified enzyme; format: binding; conditions: as purified after expression and lysis with added flavin
T1 sequence (Q9RB48 1-639): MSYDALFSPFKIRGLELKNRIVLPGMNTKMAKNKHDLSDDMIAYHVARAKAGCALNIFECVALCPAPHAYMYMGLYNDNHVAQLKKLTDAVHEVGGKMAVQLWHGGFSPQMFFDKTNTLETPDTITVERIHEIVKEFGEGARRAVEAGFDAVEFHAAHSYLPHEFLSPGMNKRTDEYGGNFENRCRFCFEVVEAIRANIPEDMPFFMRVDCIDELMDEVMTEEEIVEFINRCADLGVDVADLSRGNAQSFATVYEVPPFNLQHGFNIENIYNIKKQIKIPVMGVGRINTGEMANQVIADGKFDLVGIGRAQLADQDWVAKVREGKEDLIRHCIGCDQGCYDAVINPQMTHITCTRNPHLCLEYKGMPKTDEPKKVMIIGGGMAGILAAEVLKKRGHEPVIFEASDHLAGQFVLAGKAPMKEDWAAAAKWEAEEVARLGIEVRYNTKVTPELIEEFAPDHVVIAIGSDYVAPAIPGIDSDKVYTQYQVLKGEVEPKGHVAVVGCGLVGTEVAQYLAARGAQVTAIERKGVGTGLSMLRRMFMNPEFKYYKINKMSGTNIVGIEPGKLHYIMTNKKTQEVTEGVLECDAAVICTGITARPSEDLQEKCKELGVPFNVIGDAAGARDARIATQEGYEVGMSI

[2] = molecular target: T2, BaiH from C. scindens ([Clostridium] scindens, UniProt P32370); experiment: LC-MS of acid-precipitated purified enzyme; format: binding; conditions: as purified after expression and lysis with added flavin
T2 sequence (P32370 1-661): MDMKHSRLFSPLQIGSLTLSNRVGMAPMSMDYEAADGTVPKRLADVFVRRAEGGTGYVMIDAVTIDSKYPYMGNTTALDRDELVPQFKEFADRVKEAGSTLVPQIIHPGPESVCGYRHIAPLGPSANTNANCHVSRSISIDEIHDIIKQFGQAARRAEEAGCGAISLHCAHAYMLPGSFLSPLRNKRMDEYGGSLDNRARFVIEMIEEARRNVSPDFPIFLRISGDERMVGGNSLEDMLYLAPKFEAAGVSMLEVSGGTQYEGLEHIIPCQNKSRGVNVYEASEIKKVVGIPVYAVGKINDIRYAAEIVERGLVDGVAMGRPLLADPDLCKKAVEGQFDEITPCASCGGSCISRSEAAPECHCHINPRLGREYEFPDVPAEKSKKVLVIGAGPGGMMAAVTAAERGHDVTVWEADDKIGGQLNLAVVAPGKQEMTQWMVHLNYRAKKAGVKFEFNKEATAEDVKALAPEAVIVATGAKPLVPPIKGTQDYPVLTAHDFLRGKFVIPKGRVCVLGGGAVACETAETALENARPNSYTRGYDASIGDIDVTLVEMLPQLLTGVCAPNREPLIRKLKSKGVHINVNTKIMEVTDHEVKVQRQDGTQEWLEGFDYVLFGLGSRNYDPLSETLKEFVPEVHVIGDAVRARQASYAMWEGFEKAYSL

[3] = molecular target: T3, BaiA2 from C. scindens ([Clostridium] scindens, UniProt P19337); experiment: LC-MS extracted ion chromatograms; format: biochemical; conditions: reduction to DCA; experiment performed once
T3 sequence (P19337 1-249): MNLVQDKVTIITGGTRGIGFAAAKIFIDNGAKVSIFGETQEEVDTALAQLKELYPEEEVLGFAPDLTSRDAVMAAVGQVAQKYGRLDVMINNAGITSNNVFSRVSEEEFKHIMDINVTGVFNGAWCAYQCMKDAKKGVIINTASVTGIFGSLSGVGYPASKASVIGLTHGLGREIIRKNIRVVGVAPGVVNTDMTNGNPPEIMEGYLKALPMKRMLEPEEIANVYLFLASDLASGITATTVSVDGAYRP

SMILES: Cc1cc2nc3c(=O)[nH]c(=O)nc-3n(C[C@H](O)[C@H](O)[C@H](O)COP(=O)(O)OP(=O)(O)OC[C@H]3O[C@@H](n4cnc5c(N)ncnc54)[C@H](O)[C@@H]3O)c2cc1C [FAD]
- LC-MS of acid-precipitated purified enzyme; UV-vis [1]: The presence of FAD and FMN were confirmed by precipitating purified enzyme with sulfuric acid
- LC-MS of acid-precipitated purified enzyme; UV-vis [2]: The presence of FAD and FMN were confirmed by precipitating purified enzyme with sulfuric acid

SMILES: Cc1cc2nc3c(=O)[nH]c(=O)nc-3n(C[C@H](O)[C@H](O)[C@H](O)COP(=O)(O)O)c2cc1C [FMN]
- LC-MS of acid-precipitated purified enzyme; UV-vis [1]: The presence of FAD and FMN were confirmed by precipitating purified enzyme with sulfuric acid
- LC-MS of acid-precipitated purified enzyme; UV-vis [2]: The presence of FAD and FMN were confirmed by precipitating purified enzyme with sulfuric acid

SMILES: C[C@H](CCC(=O)O)[C@H]1CC[C@H]2[C@@H]3CC[C@@H]4CC(=O)CC[C@]4(C)[C@H]3C[C@H](O)[C@]12C [compound 8, 3-oxo-deoxycholic acid]
- LC-MS extracted ion chromatograms [3]: conversion of 3-oxo-DCA to DCA by recombinant BaiA2
